For one data set, the target named is T1, Neprilysin (Homo sapiens, UniProt P08473).
T1 construct: purchased R&D Systems 1182-ZNC-010
The data set can be described thus: Proteolytic resistance to neprilysin (% remaining peptide, RP-HPLC AUC). The class given is in vitro ADME. The settings on record: t = 0; 37° C., pH 8.3.

For data set [1], the target named is T2, human GLP-1 receptor (GLP-1R) (Homo sapiens, UniProt P43220).
T2 construct: expressed in transfected cells
In words: cAMP assay, human GLP-1R cells. Format: cell-based. An outline of the steps: (§1)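 Peptide-stimulated cAMP measured by two-step HTRF after a 30 min room-temperature incubation with receptor-expressing cells (hGLP-1R, hGIPR at 1×10^5 cells/ml; hGCGR at 2×10^5 cells/ml). Duplicate dilutions; EC50 from 4-parameter logistic fit of % Delta F.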

The target in data set [2] is T3, human glucagon receptor (GCGR) (Homo sapiens, UniProt P47871).
T3 construct: expressed in transfected cells
T3 sequence (P47871 26-477): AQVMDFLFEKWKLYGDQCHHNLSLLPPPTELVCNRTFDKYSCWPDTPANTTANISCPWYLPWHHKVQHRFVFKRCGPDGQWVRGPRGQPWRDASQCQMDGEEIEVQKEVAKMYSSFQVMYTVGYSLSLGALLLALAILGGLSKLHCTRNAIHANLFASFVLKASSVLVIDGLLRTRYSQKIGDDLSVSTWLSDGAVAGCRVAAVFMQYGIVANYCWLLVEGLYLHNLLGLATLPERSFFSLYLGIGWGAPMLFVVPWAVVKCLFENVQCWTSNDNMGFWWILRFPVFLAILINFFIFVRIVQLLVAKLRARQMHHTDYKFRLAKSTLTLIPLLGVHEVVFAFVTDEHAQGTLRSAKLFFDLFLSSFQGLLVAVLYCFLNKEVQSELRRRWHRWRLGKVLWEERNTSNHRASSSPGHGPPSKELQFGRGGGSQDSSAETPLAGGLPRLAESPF
The data set can be described thus: cAMP assay, human GCGR cells. Format: cell-based. Summed up:
as §1
For orientation: Changes in cAMP serve as a functional read-out for many G protein-coupled receptors.

In data set [3] the target is T4, human glucose-dependent insulinotropic peptide receptor (GIPR) (Homo sapiens, UniProt P48546).
T4 construct: expressed in transfected cells
T4 sequence (P48546 22-466): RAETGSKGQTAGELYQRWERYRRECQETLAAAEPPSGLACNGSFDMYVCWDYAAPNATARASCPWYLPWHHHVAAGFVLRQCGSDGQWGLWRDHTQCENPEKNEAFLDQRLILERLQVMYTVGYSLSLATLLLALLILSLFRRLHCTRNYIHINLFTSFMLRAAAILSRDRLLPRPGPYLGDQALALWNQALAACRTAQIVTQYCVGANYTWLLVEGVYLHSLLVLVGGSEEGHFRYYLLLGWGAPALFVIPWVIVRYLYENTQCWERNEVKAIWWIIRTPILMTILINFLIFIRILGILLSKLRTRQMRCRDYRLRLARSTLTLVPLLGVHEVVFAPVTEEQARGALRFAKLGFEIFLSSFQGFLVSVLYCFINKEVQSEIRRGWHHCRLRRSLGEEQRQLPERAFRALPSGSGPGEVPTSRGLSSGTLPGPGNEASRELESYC
The data set can be described thus: cAMP assay, human GIPR cells. Format: cell-based. An outline of the steps:
as §1

The target in a further data set is T5, GLP-1R (INS1e assay) (Rattus norvegicus, UniProt P32301).
T5 construct: endogenous in cells; host or cells: INS-1E cells
T5 sequence (P32301 22-463): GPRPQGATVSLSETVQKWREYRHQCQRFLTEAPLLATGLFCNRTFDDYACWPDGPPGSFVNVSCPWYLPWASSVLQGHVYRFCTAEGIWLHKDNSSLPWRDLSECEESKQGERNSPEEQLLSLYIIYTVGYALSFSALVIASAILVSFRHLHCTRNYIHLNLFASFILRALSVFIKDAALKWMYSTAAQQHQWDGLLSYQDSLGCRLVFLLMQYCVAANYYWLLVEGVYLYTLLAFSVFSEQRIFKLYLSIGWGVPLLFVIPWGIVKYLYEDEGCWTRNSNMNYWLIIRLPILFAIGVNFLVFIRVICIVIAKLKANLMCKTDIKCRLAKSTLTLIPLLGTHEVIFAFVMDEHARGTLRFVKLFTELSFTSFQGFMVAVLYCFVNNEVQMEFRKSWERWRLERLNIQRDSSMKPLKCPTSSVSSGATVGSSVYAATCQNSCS
In words: INS1e assay, cAMP activity at GLP-1R. The class given is cell-based. Particulars: mono-lipidated peptides. Summed up: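 It pairs cAMP-d2 acceptor with anti-cAMP cryptate donor, both prepared 1/20 in conjugate/lysis buffer, applied as a two-step protocol.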

Where [4] appears, read: first run (n1), cAMP activity, read-out: Primary assay EC50 GLP-1R n1.
[5] abbreviates: mean of n1 and n2, read-out: Mean pM GLP-1R.
Where [6] appears, read: second run (n2), cAMP activity, read-out: Primary assay EC50 GLP-1R n2.
Where [7] appears, read: first run (n1), cAMP activity of substituted and mono-lipidated peptides, read-out: Primary assay EC50 Gluc-R.
The mark [8] stands for this setting: second run (n2), cAMP activity, read-out: Primary assay EC50 Gluc-R.
Where [9] appears, read: first run (n1), cAMP activity, read-out: Primary assay EC50 GIP-R.
The mark [10] stands for this setting: second run (n2), cAMP activity, read-out: Primary assay EC50 GIP-R.
Where [11] appears, read: mean of n1 and n2, read-out: INS1e assay EC50 Mean pM GLP-1R.
Where [12] appears, read: replicate n1, read-out: INS1e assay EC50 GLP-1R n1.
Setting [13] is: replicate n2, read-out: INS1e assay EC50 GLP-1R n2.

The structures appear in SMILES notation. Where two headings read alike, the source gives them in different places. Square brackets hold non-standard residues; d marks the D form. Peptide text beside a SMILES is read from it. * marks the point of attachment. Palmitoyl = CCCCCCCCCCCCCCCC(=O)*; αMeF = C[C@](N)(Cc1ccccc1)C(=O)O; αMeK = C[C@](N)(CCCCN)C(=O)O; Aib = CC(C)(N)C(=O)O

T2 sequence (P43220 24-463): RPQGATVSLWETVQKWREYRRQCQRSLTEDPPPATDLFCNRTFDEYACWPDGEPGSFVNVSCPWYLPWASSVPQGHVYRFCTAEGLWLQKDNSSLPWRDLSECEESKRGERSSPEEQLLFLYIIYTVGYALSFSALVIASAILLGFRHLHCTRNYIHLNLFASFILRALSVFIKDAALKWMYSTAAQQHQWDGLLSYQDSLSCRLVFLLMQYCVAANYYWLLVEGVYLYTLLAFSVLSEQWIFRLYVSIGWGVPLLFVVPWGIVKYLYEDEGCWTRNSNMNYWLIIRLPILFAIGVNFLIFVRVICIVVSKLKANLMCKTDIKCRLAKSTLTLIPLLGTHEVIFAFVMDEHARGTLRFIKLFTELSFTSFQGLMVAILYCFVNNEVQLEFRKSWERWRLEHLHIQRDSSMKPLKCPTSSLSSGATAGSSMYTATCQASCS
T1 sequence (P08473 whole entry): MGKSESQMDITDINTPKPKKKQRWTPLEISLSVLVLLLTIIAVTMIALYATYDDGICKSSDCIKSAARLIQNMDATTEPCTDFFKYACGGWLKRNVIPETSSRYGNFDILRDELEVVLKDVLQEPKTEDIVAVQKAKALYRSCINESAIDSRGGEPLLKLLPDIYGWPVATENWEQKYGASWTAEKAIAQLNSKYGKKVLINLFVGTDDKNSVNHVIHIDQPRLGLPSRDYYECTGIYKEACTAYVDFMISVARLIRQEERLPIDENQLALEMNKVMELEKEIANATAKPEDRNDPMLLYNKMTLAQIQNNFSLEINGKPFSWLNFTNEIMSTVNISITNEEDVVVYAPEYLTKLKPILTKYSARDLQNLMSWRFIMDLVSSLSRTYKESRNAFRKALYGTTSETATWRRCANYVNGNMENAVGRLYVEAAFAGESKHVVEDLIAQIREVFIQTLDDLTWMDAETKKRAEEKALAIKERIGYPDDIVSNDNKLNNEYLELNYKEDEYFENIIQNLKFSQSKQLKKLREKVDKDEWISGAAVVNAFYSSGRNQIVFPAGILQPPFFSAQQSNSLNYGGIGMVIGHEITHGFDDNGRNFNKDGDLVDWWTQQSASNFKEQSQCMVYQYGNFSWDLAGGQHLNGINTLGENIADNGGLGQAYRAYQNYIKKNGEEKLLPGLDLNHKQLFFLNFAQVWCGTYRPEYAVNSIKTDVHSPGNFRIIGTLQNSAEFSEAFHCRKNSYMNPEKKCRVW
Procedure for Neprilysin: Ratio enzyme (units):peptide (μmoles)˜1:33. […] Ratio enzyme (units):peptide (μmoles)˜1:2.5.
15 μL aliquots (˜15 μg initial peptide) of the peptide-enzyme mixture were periodically withdrawn (t=0, 30 mins, 1 hr, 2 hr, 4 hr, 8 hr, 24 hr) and quenched immediately by addition to an equal volume (15 μL) of 5% TFA (v/v) in 1:1 water/acetonitrile to arrest proteolytic activity. 20 μL aliquots (˜10 μg initial peptide) were analyzed by LC/MS and/or analytical RP-HPLC as follows: LC/MS method: Agilent Polaris C8-A column (4.6×100 mm, 3 micron) eluted with a linear binary gradient of 10-90% MeCN (0.1% TFA v/v) in water (0.1% TFA v/v) over 30 mins at 1.5 mL min-1 at ambient temperature with detection by both UV absorption at 210 nm and ionization using a Waters 3100 mass detector (ESI+ mode). Peptide fragments deriving from enzymatic hydrolysis were identified by molecular weight, allowing location of the site of cleavage. Analytical RP-HPLC method: Agilent Polaris C8-A column (4.6×100 mm, 3 micron) eluted with a linear binary gradient of 10-90% MeCN (0.1% TFA v/v) in water (0.1% TFA v/v) over either 10 or 15 mins at 1.5 mL min^−1 at 40° C. with detection by UV absorption at 210 nm. Manual integration (AUC) allowed estimation of remaining intact peptide over the time course of the experiment.
25 μL aliquots (˜6 μg initial peptide) were analyzed by LC/MS and/or analytical RP-HPLC as follows: LC/MS method: Agilent Polaris C8-A column (4.6×100 mm, 3 micron) eluted with a linear binary gradient of 10-90% MeCN (0.1% TFA v/v) in water (0.1% TFA v/v) over 30 mins at 1.5 mL min^−1 at ambient temperature with detection by both UV absorption at 210 nm and ionization using a Waters 3100 mass detector (ESP mode). Peptide fragments deriving from enzymatic hydrolysis were identified by molecular weight, allowing location of the site of cleavage. Analytical RP-HPLC method: Agilent Polaris C8-A column (4.6×100 mm, 3 micron) eluted with a linear binary gradient of 10-90% MeCN (0.1% TFA v/v) in water (0.1% TFA v/v) over either 10 or 15 mins at 1.5 mL min^−1 at 40° C. with detection by UV absorption at 210 nm. Manual integration (AUC) allowed estimation of remaining intact peptide over the time course of the experiment.

For `CCCCCCCCCCCCCCCC(=O)NCCCC[C@H](NC(=O)CNC(=O)CNC(=O)[C@](C)(CCCCN)NC(=O)[C@@H](NC(=O)[C@@H](NC(=O)[C@](C)(Cc1ccccc1)NC(=O)[C@H](C)NC(=O)[C@@H](NC(=O)[C@](C)(Cc1ccccc1)NC(=O)[C@H](CCC(=O)O)NC(=O)[C@](C)(CCCCN)NC(=O)[C@H](C)NC(=O)[C@H](C)NC(=O)[C@H](CCC(N)=O)NC(=O)CNC(=O)[C@H](CCC(=O)O)NC(=O)[C@H](CC(C)C)NC(=O)[C@](C)(Cc1ccccc1)NC(=O)[C@H](CO)NC(=O)[C@H](CO)NC(=O)[C@@H](NC(=O)[C@H](CC(=O)O)NC(=O)[C@H](CO)NC(=O)[C@@H](NC(=O)[C@](C)(Cc1ccccc1)NC(=O)[C@H](CO)NC(=O)CNC(=O)[C@H](CCC(=O)O)NC(=O)C(C)(C)NC(=O)[C@@H](N)Cc1c[nH]cn1)[C@@H](C)O)C(C)C)[C@@H](C)CC)C(C)C)C(C)C)C(N)=O` [compound 489] (H-H[Aib]EGS[αMeF]TSDVSS[αMeF]LEGQAA[αMeK]E[αMeF]IA[αMeF]VV[αMeK]GGK(Palmitoyl)-NH2), the “Percentage remaining peptide (AUC at specified time-point by RP-HPLC) upon incubation with neprilysin, t = 0” value at Neprilysin worked out at 100%.

On to `CCCCCCCCCCCCCCCCCC(=O)NCCOCCOCC(=O)NCCOCCOCC(=O)NCCOCCOCC(=O)NCCCC[C@H](NC(=O)[C@@H](NC(=O)[C@@H](NC(=O)[C@](C)(Cc1ccccc1)NC(=O)[C@H](C)NC(=O)[C@@H](NC(=O)[C@](C)(Cc1ccccc1)NC(=O)[C@H](CCC(=O)O)NC(=O)[C@](C)(CCCCN)NC(=O)[C@H](C)NC(=O)[C@H](C)NC(=O)[C@H](CCC(=O)O)NC(=O)CNC(=O)[C@H](CCC(=O)O)NC(=O)[C@H](CC(C)C)NC(=O)[C@](C)(Cc1ccccc1)NC(=O)[C@H](CO)NC(=O)[C@](C)(CO)NC(=O)[C@@H](NC(=O)[C@H](CC(=O)O)NC(=O)[C@H](CO)NC(=O)[C@@H](NC(=O)[C@](C)(Cc1ccccc1)NC(=O)[C@H](CO)NC(=O)CNC(=O)[C@H](CCC(=O)O)NC(=O)C(C)(C)NC(=O)[C@@H](N)Cc1c[nH]cn1)[C@@H](C)O)C(C)C)[C@@H](C)CC)C(C)C)C(C)C)C(=O)NCC(=O)NCC(N)=O` [compound 190], for which the EC50 in data set [1] (setting [4]) was 9.7 pM; in data set [1] (setting [5]), 7.2 pM; in data set [1] (setting [6]) it was 4.7 pM; in data set [2] (setting [7]), at least 26 nM; in data set [2] (setting [8]) it was at least 26 nM; in data set [3] (setting [9]) it was at least 26 nM. For the same compound, the EC50 in data set [3] (setting [10]) is at least 26 nM; on GLP-1R (INS1e assay) (setting [11]), 44.1 pM; on GLP-1R (INS1e assay) (setting [12]), 39.7 pM; on GLP-1R (INS1e assay) (setting [13]), 48.5 pM.

With `CCCCCCCCCCCCCCCCCC(=O)NCCOCCOCC(=O)NCCOCCOCC(=O)NCCCC[C@H](NC(=O)[C@H](C)NC(=O)[C@H](C)NC(=O)[C@H](CCC(=O)O)NC(=O)CNC(=O)[C@H](CCC(=O)O)NC(=O)[C@H](CC(C)C)NC(=O)[C@](C)(Cc1ccccc1)NC(=O)[C@H](CO)NC(=O)[C@](C)(CO)NC(=O)[C@@H](NC(=O)[C@H](CC(=O)O)NC(=O)[C@H](CO)NC(=O)[C@@H](NC(=O)[C@](C)(Cc1ccccc1)NC(=O)[C@H](CO)NC(=O)CNC(=O)[C@H](CCC(=O)O)NC(=O)C(C)(C)NC(=O)[C@@H](N)Cc1c[nH]cn1)[C@@H](C)O)C(C)C)C(=O)N[C@@H](CCC(=O)O)C(=O)N[C@@](C)(Cc1ccccc1)C(=O)N[C@H](C(=O)N[C@@H](C)C(=O)N[C@@](C)(Cc1ccccc1)C(=O)N[C@H](C(=O)N[C@H](C(=O)N[C@@](C)(CCCCN)C(=O)NCC(=O)NCC(N)=O)C(C)C)C(C)C)[C@@H](C)CC` [compound 153], the EC50 in data set [1] (cAMP assay, first determination (n1), read-out: Primary assay EC50 GLP-1R n1) is 7.9 pM; in data set [1] (cAMP assay, second determination (n2), read-out: Primary assay EC50 GLP-1R n2), 5 pM; in data set [1] (setting [5]) it was 6.4 pM; in data set [2] (cAMP assay, first determination (n1), read-out: Primary assay EC50 Gluc-R (n1)), at least 27 nM; in data set [2] (cAMP assay, second determination (n2), read-out: Primary assay EC50 Gluc-R (n2)), at least 27 nM; in data set [3] (cAMP assay, first determination (n1), read-out: Primary assay EC50 GIP-R (n1)), at least 27 nM. For the same compound, the EC50 is at least 27 nM in data set [3] (cAMP assay, second determination (n2), read-out: Primary assay EC50 GIP-R (n2)); 58 pM at GLP-1R (INS1e assay) (setting [11]); 55 pM at GLP-1R (INS1e assay) (setting [12]); 61.2 pM at GLP-1R (INS1e assay) (setting [13]).

As to `CCCCCCCCCCCCCCCCCC(=O)NCCOCCOCC(=O)NCCOCCOCC(=O)NCCCC[C@H](NC(=O)[C@@H](NC(=O)[C@@H](NC(=O)[C@](C)(Cc1ccccc1)NC(=O)[C@H](C)NC(=O)[C@@H](NC(=O)[C@](C)(Cc1ccccc1)NC(=O)[C@H](CCC(=O)O)NC(=O)[C@](C)(CCCCN)NC(=O)[C@H](C)NC(=O)[C@H](C)NC(=O)[C@H](CCC(=O)O)NC(=O)CNC(=O)[C@H](CCC(=O)O)NC(=O)[C@H](CC(C)C)NC(=O)[C@](C)(Cc1ccccc1)NC(=O)[C@H](CO)NC(=O)[C@](C)(CO)NC(=O)[C@@H](NC(=O)[C@H](CC(=O)O)NC(=O)[C@H](CO)NC(=O)[C@@H](NC(=O)[C@](C)(Cc1ccccc1)NC(=O)[C@H](CO)NC(=O)CNC(=O)[C@H](CCC(=O)O)NC(=O)C(C)(C)NC(=O)[C@@H](N)Cc1c[nH]cn1)[C@@H](C)O)C(C)C)[C@@H](C)CC)C(C)C)C(C)C)C(=O)NCC(=O)NCC(N)=O` [compound 189], the EC50 in data set [1] (setting [4]) is 30 pM; in data set [1] (setting [5]) it was 20.8 pM; in data set [1] (setting [6]) it was 12 pM; in data set [2] (setting [7]), at least 27 nM; in data set [2] (setting [8]), at least 27 nM; in data set [3] (setting [9]), at least 27 nM. The EC50 in data set [3] (setting [10]) was at least 27 nM; on GLP-1R (INS1e assay) (setting [11]), 144 pM; on GLP-1R (INS1e assay) (setting [12]) it was 114 pM; on GLP-1R (INS1e assay) (setting [13]), 173 pM.

With `CC[C@H](C)[C@H](NC(=O)[C@](C)(Cc1ccccc1)NC(=O)[C@H](CCC(=O)O)NC(=O)[C@](C)(CCCCN)NC(=O)[C@H](C)NC(=O)[C@H](C)NC(=O)[C@H](CCC(=O)O)NC(=O)CNC(=O)[C@H](CCC(=O)O)NC(=O)[C@H](CC(C)C)NC(=O)[C@](C)(Cc1ccccc1)NC(=O)[C@H](CO)NC(=O)[C@](C)(CO)NC(=O)[C@@H](NC(=O)[C@H](CC(=O)O)NC(=O)[C@H](CO)NC(=O)[C@@H](NC(=O)[C@](C)(Cc1ccccc1)NC(=O)[C@H](CO)NC(=O)CNC(=O)[C@H](CCC(=O)O)NC(=O)C(C)(C)NC(=O)[C@@H](N)Cc1c[nH]cn1)[C@@H](C)O)C(C)C)C(=O)N[C@@H](C)C(=O)N[C@@](C)(Cc1ccccc1)C(=O)N[C@H](C(=O)N[C@H](C(=O)N[C@@H](CCCCNC(=O)COCCOCCNC(=O)COCCOCCNC(=O)CCCCCCCCCCCCCCCCC(=O)O)C(=O)NCC(=O)NCC(N)=O)C(C)C)C(C)C` [compound 198], the EC50 was 41 pM in data set [1] (setting [4]); 27.9 pM in data set [1] (setting [5]); 15 pM in data set [1] (setting [6]); at least 26 nM in data set [2] (setting [7]); at least 26 nM in data set [2] (setting [8]); at least 26 nM in data set [3] (setting [9]). In addition, the EC50 is at least 26 nM in data set [3] (setting [10]), 1140 pM at GLP-1R (INS1e assay) (setting [11]), 1380 pM at GLP-1R (INS1e assay) (setting [12]) and 890 pM on GLP-1R (INS1e assay) (setting [13]).

(Values after patent publication US10414811B2, “Protease-resistant lipidated GLP-1 analogs” (MEDIMMUNE LIMITED, priority 2015, dated 2019).)
